Measurements published in article PMC3502340, “Agglutinating Activity and Structural Characterization of Scalarin, the Major Egg Protein of the Snail Pomacea scalaris (d’Orbigny, 1832)” (PLoS ONE, 2012).

System: T1, scalarin (PsSC)
T1 construct: native, purified from newly laid egg clutches (ultracentrifugation, size exclusion); 380 kDa glycosylated carotenoprotein oligomer of 35, 28 and 24 kDa subunits
Experiment: inhibition of rabbit erythrocyte hemagglutination (titre)
Type: cell-based, Pomacea scalaris
Conditions: 200000 µM, TBS pH 7.4, 37 °C, 1 h preincubation, 2% rabbit erythrocytes
Excerpt: inhibition of rabbit erythrocyte hemagglutination (titre) on scalarin (PsSC)

Row | SMILES | % Inhibition [%] | % Inhibition (text prints 99.99%) [%]
1 | CC(=O)N[C@H]1C(O)O[C@H](CO)[C@H](O)[C@@H]1O (stereo partly drawn) [N-acetyl-D-galactosamine] | 50.0 | 
2 | N[C@H]1C(O)O[C@H](CO)[C@H](O)[C@@H]1O (stereo partly drawn) [galactosamine] |  | 99.9
3 | N[C@H]1C(O)O[C@H](CO)[C@@H](O)[C@@H]1O (stereo partly drawn) [glucosamine] | 99.6 | 
